Where two headings read alike, the source gives them in different places.
How the values were obtained:
Burkhordelia cepacia = assay type: cell-based; details: control 1,300,000; for Colony count (UFC/mL ± 10) Burkhordelia: 4 hours at 37° C., Example 9; for Colony count (UFC/mL ± 10): 4-hour contact at 37° C., Example 8
Procedure: In this case, tests were run on a non-nutritive liquid carrier (buffer solution) wherein the antimicrobial agent is mixed with quantified inocula of pure bacterial cultures. After different incubation times, the material is seeded on agar plates to perform quantification assays on the number of bacterias surviving the treatment.
When the time for each assay finished, aliquots of 100 uL and decimal dilutions of each tube which were seeded on petri dishes for the direct count of colony forming units (CFU) in Mueller Hinton agar (MHA), using pour-plating or spread-plating standard methods.
During testing, the medium was stored in thermostatic bath between 45-50° C. because the seeding technique requires imbibing and integrating bacteria in the medium.

[1] = tested on: artificial biofilm of P. aeruginosa; test: Antimicrobial effect on artificial biofilm (2% alginate solution); assay type: cell-based, Pseudomonas aeruginosa; details: Biofilm (2% alginate) + ionic strength (1 M NaCl), 4 hours at 37° C., control 2,000,000, Example 21
Procedure: Work consisted of incubating bacterial populations of a known load in terms of CFU/mL with the compounds mentioned in different molar concentrations. In vitro test batteries were organized at different doses or concentrations and in 1.5 mL Eppendorf tubes without the addition of culture medium. To this purpose, a PBS 100 mM phosphate buffer was used to maintain physiological conditions throughout the period of each test at 37° C. […] Each plate was added with 5 uL of a solution of 2,3,5-metabolic dye triphenyltetrazolium of chloride (TTC) 1% to enhance the contrast of colonies. Plates were incubated in inverted position, in a culture stove for 24-48 hours at 37° C. and subsequently the direct count was done, adjusted by dilution factors and seeding to report results in terms of CFU/mL. […] Treatments lasted 4 hours at 37° C.

[2] = tested on: Staphylococcus aureus (Gram+); test: Bactericidal test: CFU count after incubation in PBS buffer; assay type: cell-based; details: control 1,000,000; for Colony count (UFC/mL ± 10) Staphylococcus: 4 hours at 37° C., Example 9; for Colony count (UFC/mL ± 10) S. aureus: 4-hour at 37° C., Example 15; for Colony count (UFC/mL ± 10): 4-hour contact at 37° C., Example 8
Klebsiella pneumoniae = test: as above; assay type: cell-based; details: 4-hour contact at 37° C., control 1,000,000, Example 8
Pseudomonas fluorescens = test: as above; assay type: cell-based; details: 4-hour contact at 37° C., control 100,000, Example 8
Escherichia coli = test: as above; assay type: cell-based; details: 4-hour contact at 37° C., control 1,000,000, Example 8
[3] = tested on: Enterococcus faecalis (Gram+); test: as above; assay type: cell-based; details: 4-hour contact at 37° C., control 100,000, Example 8
P. aeruginosa = test: as above; assay type: cell-based, Pseudomonas aeruginosa; details: for P. aeruginosa count (UFC/mL ± 10) As a function of treatment time: 37° C., control 2,000,000, Example 6

CC(C)Cc1ccc(C(C)C(=O)O)cc1.[Na] (stereo not drawn) [IBU-Na, SODIUM IBUPROFEN]
Colony count (UFC/mL ± 10) Burkhordelia (Burkhordelia cepacia; IBU-Na 5 mM): 1,300,000 UFC/mL | Colony count (UFC/mL ± 10) Burkhordelia (Burkhordelia cepacia; IBU-Na 10 mM): 1,300,000 UFC/mL | Colony count (UFC/mL ± 10) Burkhordelia (Burkhordelia cepacia; IBU-Na 25 mM): 40,000 UFC/mL | Colony count (UFC/mL ± 10) (Burkhordelia cepacia; IBU-Na 50 mM): 680 UFC/mL | Colony count (UFC/mL ± 10) Burkhordelia (Burkhordelia cepacia; IBU-Na 50 mM): 700 UFC/mL | Colony count (UFC/mL ± 10) (Burkhordelia cepacia; IBU-Na 100 mM): 10 UFC/mL | Colony count (UFC/mL ± 10) Burkhordelia (Burkhordelia cepacia; IBU-Na 100 mM): 10 UFC/mL | P. aeruginosa (UFC/mL ± 10) ([1]; 10 mM): 25,000 UFC/mL | P. aeruginosa (UFC/mL ± 10) ([1]; 25 mM): 200 UFC/mL | Colony count (UFC/mL ± 10) Staphylococcus ([2]; IBU-Na 5 mM): 1,000,000 UFC/mL | Colony count (UFC/mL ± 10) Staphylococcus ([2]; IBU-Na 10 mM): 1,000,000 UFC/mL | Colony count (UFC/mL ± 10) S. aureus ([2]; IBU-Na 12.5 mM + ClNa (1M)): 100 UFC/mL | Colony count (UFC/mL ± 10) S. aureus ([2]; IBU-Na 25 mM + ClNa (1M)): 10 UFC/mL | Colony count (UFC/mL ± 10) Staphylococcus ([2]; IBU-Na 25 mM): 30,000 UFC/mL | Colony count (UFC/mL ± 10) S. aureus ([2]; IBU-Na 50 mM + ClNa (1M)): 10 UFC/mL | Colony count (UFC/mL ± 10) ([2]; IBU-Na 50 mM): 550 UFC/mL | Colony count (UFC/mL ± 10) Staphylococcus ([2]; IBU-Na 50 mM): 600 UFC/mL | Colony count (UFC/mL ± 10) ([2]; IBU-Na 100 mM): 10 UFC/mL | Colony count (UFC/mL ± 10) Staphylococcus ([2]; IBU-Na 100 mM): 10 UFC/mL | Colony count (UFC/mL ± 10) (Klebsiella pneumoniae; IBU-Na 50 mM): 600 UFC/mL | Colony count (UFC/mL ± 10) (Klebsiella pneumoniae; IBU-Na 100 mM): 10 UFC/mL | Colony count (UFC/mL ± 10) (Pseudomonas fluorescens; IBU-Na 50 mM): 150 UFC/mL | Colony count (UFC/mL ± 10) (Pseudomonas fluorescens; IBU-Na 100 mM): 10 UFC/mL | Colony count (UFC/mL ± 10) (Escherichia coli; IBU-Na 50 mM): 500 UFC/mL | Colony count (UFC/mL ± 10) (Escherichia coli; IBU-Na 100 mM): 10 UFC/mL | Colony count (UFC/mL ± 10) ([3]; IBU-Na 50 mM): 180 UFC/mL | Colony count (UFC/mL ± 10) ([3]; IBU-Na 100 mM): 10 UFC/mL | P. aeruginosa (UFC/mL ± 10) (P. aeruginosa; IBU 10 mM, 4 h at 37° C., control 1,700,000, Example 4): 760,000 UFC/mL | P. aeruginosa (UFC/mL ± 10) (P. aeruginosa; IBU 20 mM y NaCl (1M), preincubated 1 hour with human Albumin 5 mg/mL, 4 hours at 37° C., control 1,000,000, Example 16): 1500 UFC/mL | P. aeruginosa (UFC/mL ± 10) (P. aeruginosa; IBU 20 mM, 4 h at 37° C., control 1,700,000, Example 4): 300,000 UFC/mL | P. aeruginosa (UFC/mL ± 10) (P. aeruginosa; IBU 50 mM, 4 h at 37° C., control 1,700,000, Example 4): 50 UFC/mL | P. aeruginosa count (UFC/mL ± 10) As a function of treatment time (P. aeruginosa; IBU-Na 1 mM, 1 hour): 2,000,000 UFC/mL | P. aeruginosa count (UFC/mL ± 10) As a function of treatment time (P. aeruginosa; IBU-Na 1 mM, 4 hours): 2,000,000 UFC/mL | P. aeruginosa count (UFC/mL ± 10) As a function of treatment time (P. aeruginosa; IBU-Na 1 mM, Overnight (O.N.)): 2,000,000 UFC/mL | P. aeruginosa (UFC/mL ± 10) (P. aeruginosa; IBU-Na 1 mM, Population A (control 200,000), 4 h at 37° C., Example 5): 200,000 UFC/mL | P. aeruginosa (UFC/mL ± 10) (P. aeruginosa; IBU-Na 1 mM, Population B (control 20,000), 4 h at 37° C., Example 5): 20,000 UFC/mL | P. aeruginosa (UFC/mL ± 10) (P. aeruginosa; IBU-Na 1 mM, Population C (control 2,000), 4 h at 37° C., Example 5): 2,000 UFC/mL | P. aeruginosa count (UFC/mL ± 10) As a function of treatment time (P. aeruginosa; IBU-Na 2.5 mM, 1 hour): 2,000,000 UFC/mL | P. aeruginosa count (UFC/mL ± 10) As a function of treatment time (P. aeruginosa; IBU-Na 2.5 mM, Overnight (O.N.)): 2,000,000 UFC/mL
